Experimental data reported in patent US20250345277A1, “Ionizable Liposome, Preparation Thereof, and Application Thereof in Gene Delivery” (MAXIRNA (ZHEJIANG) TECHNOLOGY CO. LTD., priority 2021, published 2025).

Tests used:
CHO cells = experiment: In vitro transfection of CHO cells with EGFP mRNA LNP preparation; format: cell-based, Chinese hamster
Excerpt: (§1) The description is based on peripheral blood mononuclear cells PBMC (Shanghai Oribiotech Co., Ltd.), human peripheral blood leukemia T cell Jurkat (ATCC), tumor infiltrating lymphocyte TIL (isolated from resected tumor tissue of a liver cancer patient, the preparation method refers to CN114763530A), mouse bone marrow-derived dendritic cells DC2.4 (Cell Bank of the Chinese Academy of Sciences), and Chinese hamster ovary cells CHO (ATCC) were used as verified cell lines for liposome transfection. PBMC, Jurkat, and TIL cells grew in suspension, while DC2.4 and CHO cells grew by adherent culture. All the operation steps of cell culture must strictly abide by the prescribed procedures, and sterile reagents is used to perform aseptic operations under a sterile workbench. The main steps are as follows: • 1) Cell recovery: the preserved cell cryopreservation solution was taken out of the −80° C. refrigerator, and was immediately put in a 37° C. water bath for rapid and continuous shaking, and was completely melted within one minute. […] The culture bottle was placed in a 5% CO2 incubator and incubated at 37° C., and the recovery time was recorded. • 2) Cell subculture: Under the microscope, if the cell density in the field of view reaches 80%-90%, the cells can be subcultured. […]

Jurkat cells = experiment: In vitro transfection of Jurkat cells with EGFP mRNA LNP preparation; format: cell-based, human
Excerpt: as §1

TIL cells = experiment: In vitro transfection of TIL cells with EGFP mRNA LNP preparation; format: cell-based, human
Excerpt: The description is based on peripheral blood mononuclear cells PBMC (Shanghai Oribiotech Co., Ltd.), human peripheral blood leukemia T cell Jurkat (ATCC), tumor infiltrating lymphocyte TIL (isolated from resected tumor tissue of a liver cancer patient, the preparation method refers to CN114763530A), mouse bone marrow-derived dendritic cells DC2.4 (Cell Bank of the Chinese Academy of Sciences), and Chinese hamster ovary cells CHO (ATCC) were used as verified cell lines for liposome transfection. PBMC, Jurkat, and TIL cells grew in suspension, while DC2.4 and CHO cells grew by adherent culture. All the operation steps of cell culture must strictly abide by the prescribed procedures, and sterile reagents is used to perform aseptic operations under a sterile workbench. The main steps are as follows: • 1) Cell recovery: the preserved cell cryopreservation solution was taken out of the −80° C. refrigerator, and was immediately put in a 37° C. water bath for rapid and continuous shaking, and was completely melted within one minute. Fresh medium was added to the 15 mL centrifuge tube in advance, and the cell solution was added to the centrifuge tube in a biological safety cabinet. A centrifuge tube of the same quality was taken and placed symmetrically in a centrifuge, centrifuged at a low speed at 1200 rpm for 5 min. After centrifugation, the supernatant was removed, and an appropriate amount of medium was slowly added along the tube wall. After the cells were evenly dispersed by blowing gently, the cell suspension was pipette and added to the culture bottle prepared in advance. The state and distribution of the cells in the early stage of recovery were observed under a microscope. The culture bottle was placed in a 5% CO2 incubator and incubated at 37° C., and the recovery time was recorded. • 2) Cell subculture: Under the microscope, if the cell density in the field of view reaches 80%-90%, the cells can be subcultured. Adherent cells need to be digested with trypsin. […]

[1] = after in vitro transfection, ApoE4 did not affect viability

CCCCCCCCCCCCC(O)CN(CCOCCN(CCOCCN(CC(O)CCCCCCCCCCCC)CC(O)CCCCCCCCCCCC)CCN1CCN(CCOCCN(CC(O)CCCCCCCCCCCC)CC(O)CCCCCCCCCCCC)CC1)CC(O)CCCCCCCCCCCC (stereo not shown) [B-C14]
cell viability by flow cytometry (FIG. 1) (CHO cells; after in vitro transfection): high viability | transfection efficiency (FIG. 2) (CHO cells; in the absence of AopE4): high transfection efficiency | cell viability by flow cytometry (FIG. 1) (Jurkat cells; [1]): high viability | transfection efficiency (FIG. 2) (Jurkat cells; in the absence of AopE4): high transfection efficiency | cell viability by flow cytometry (FIG. 1) (TIL cells; [1]): high viability | transfection efficiency (FIG. 2) (TIL cells; in the absence of AopE4): low transfection efficiency | change of transfection efficiency with ApoE4 (FIG. 3) (TIL cells; with ApoE4 versus without): increased
